Measured values: PubChem BioAssay AID192 (DTP/NCI, 2004)
Where “and” joins values, the source holds several entries; their conditions need not be identical. Equal values may be shown once. Inconclusive results and toxic doses are left out.

System: BDF1 mice, B16 melanoma ip, median survival T/C
Assay: NCI In Vivo Anticancer Drug Screen. Data for tumor model B16 Melanoma (intraperitoneal) in B6D2F1 (BDF1) mice
Settings: endpoint: median survival time, higher = longer survival
Method in brief: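 Vehicle-treated animals serve as the reference (C); treated animals (T) are scored for survival or tumor size after tumor transplantation.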

[1] = dose: 25.0 mg/kg/injection, schedule: Q01DX009 (ip), vehicle: saline with Tween-80
[2] = dose: 50.0 mg/kg/injection, schedule: Q01DX009 (ip), vehicle: saline with Tween-80
[3] = dose: 12.5 mg/kg/injection, schedule: Q01DX009 (ip), vehicle: Klucel (hydroxypropylcellulose) (HPC)
[4] = dose: 12.5 mg/kg/injection, schedule: Q01DX009 (ip), vehicle: water
[5] = dose: 100.0 mg/kg/injection, schedule: Q01DX009 (ip), vehicle: saline with Tween-80

Compound: CCCC(=O)NC1CCc2cc(OC)c(OC)c(OC)c2-c2ccc(OC)c(=O)cc21 (configuration not stated)
- T/C (dose: 0.15 mg/kg/injection, schedule: Q01DX009 (ip), vehicle: Klucel (hydroxypropylcellulose) (HPC)): 115 % of control
- T/C (dose: 0.31 mg/kg/injection, schedule: Q01DX009 (ip), vehicle: Klucel (hydroxypropylcellulose) (HPC)): 112 % of control
- T/C (dose: 0.63 mg/kg/injection, schedule: Q01DX009 (ip), vehicle: Klucel (hydroxypropylcellulose) (HPC)): 119 % of control
- T/C (dose: 2.5 mg/kg/injection, schedule: Q01DX009 (ip), vehicle: Klucel (hydroxypropylcellulose) (HPC)): 123 % of control

Compound: CCC(C)C(NC(=O)c1ccccc1)C(=O)O (configuration not stated)
- T/C (dose: 6.25 mg/kg/injection, schedule: Q01DX009 (ip), vehicle: saline with Tween-80): 100 % of control
- T/C (dose: 12.5 mg/kg/injection, schedule: Q01DX009 (ip), vehicle: saline with Tween-80): 101 % of control
- T/C [1]: 95 % of control
- T/C [2]: 90 % of control and 94 % of control

Compound: Brc1cc(Br)cc(-c2nnc(-c3cccc4ccccc34)o2)c1
- T/C (dose: 200.0 mg/kg/injection, schedule: Q01DX009 (ip), vehicle: Klucel (hydroxypropylcellulose) (HPC)): 94 % of control

Compound: CCCCCCC1CCC(N)CC1 (configuration not stated)
- T/C [3]: 86 % of control

Compound: CCCCCCCC(=O)Nc1ccc(C)cc1
- T/C (dose: 50.0 mg/kg/injection, schedule: Q04DX003 (ip), vehicle: Klucel (hydroxypropylcellulose) (HPC)): 89 % of control
- T/C (dose: 100.0 mg/kg/injection, schedule: Q04DX003 (ip), vehicle: Klucel (hydroxypropylcellulose) (HPC)): 91 % of control

Compound: [Cl][Pt][Cl].[NH-]C(CO)C(=O)O (configuration not stated)
- T/C [4]: 151 % of control

Compound: O=C(O)COc1ccc([N+](=O)[O-])cc1
- T/C [5]: 96 % of control
- T/C (dose: 200.0 mg/kg/injection, schedule: Q01DX009 (ip), vehicle: saline with Tween-80): 87 % of control

Compound: Cc1ccc(Cl)cc1NC(=O)Nc1ccc(Cl)c(Cl)c1
- T/C (dose: 75.0 mg/kg/injection, schedule: Q01DX009 (ip), vehicle: Klucel (hydroxypropylcellulose) (HPC)): 97 % of control
- T/C (dose: 150.0 mg/kg/injection, schedule: Q01DX009 (ip), vehicle: Klucel (hydroxypropylcellulose) (HPC)): 92 % of control

Compound: Cc1ccc(C2CC3c4ccccc4C2C2CCCCN32)cc1 (configuration not stated)
- T/C (dose: 0.78 mg/kg/injection, schedule: Q01DX009 (ip), vehicle: water): 112 % of control
- T/C (dose: 1.56 mg/kg/injection, schedule: Q01DX009 (ip), vehicle: water): 104 % of control
- T/C (dose: 3.13 mg/kg/injection, schedule: Q01DX009 (ip), vehicle: water): 99 % of control and 115 % of control
- T/C (dose: 6.25 mg/kg/injection, schedule: Q01DX009 (ip), vehicle: water): 107 % of control and 110 % of control
- T/C [4]: 102 % of control
- T/C (dose: 25.0 mg/kg/injection, schedule: Q01DX009 (ip), vehicle: water): 98 % of control

Compound: Cc1cccc2cc3c(ccc4ccccc43)c[n+]12
- T/C (dose: 1.0 mg/kg/injection, schedule: Q01DX009 (ip), vehicle: saline sonified): 105 % of control
- T/C (dose: 2.0 mg/kg/injection, schedule: Q01DX009 (ip), vehicle: saline sonified): 107 % of control
- T/C (dose: 4.0 mg/kg/injection, schedule: Q01DX009 (ip), vehicle: saline sonified): 102 % of control

Compound: CC1=C(/C=C/C(C)=N/NC(N)=S)C(C)(C)CCC1
- T/C (dose: 0.3 mg/kg/injection, schedule: Q01DX009 (ip), vehicle: saline with Tween-80): 105 % of control
- T/C (dose: 6.0 mg/kg/injection, schedule: Q01DX009 (ip), vehicle: saline with Tween-80): 97 % of control
- T/C (dose: 12.0 mg/kg/injection, schedule: Q01DX009 (ip), vehicle: saline with Tween-80): 97 % of control

Compound: CCCc1c(C)[nH]c2ccc(C)cc12
- T/C [1]: 101 % of control
- T/C [2]: 105 % of control
- T/C [5]: 87 % of control

Compound: C1CCC2[N-]CC3CCCCC3[N-]CC3CCCCC3[N-]CC3CCCCC3[N-]CC2C1.[Cu+2].[O-][Cl+3]([O-])([O-])O (configuration not stated)
- T/C (dose: 3.12 mg/kg/injection, schedule: Q01DX009 (ip), vehicle: Klucel (hydroxypropylcellulose) (HPC)): 153 % of control
- T/C (dose: 6.25 mg/kg/injection, schedule: Q01DX009 (ip), vehicle: Klucel (hydroxypropylcellulose) (HPC)): 161 % of control
- T/C [3]: 164 % of control

Compound: CC[N+](CC)(CC)CC
- T/C (dose: 0.37 mg/kg/injection, schedule: Q01DX009 (ip), vehicle: saline with Tween-80): 103 % of control
- T/C (dose: 0.75 mg/kg/injection, schedule: Q01DX009 (ip), vehicle: saline with Tween-80): 100 % of control
- T/C (dose: 1.5 mg/kg/injection, schedule: Q01DX009 (ip), vehicle: saline with Tween-80): 112 % of control
- T/C (dose: 3.0 mg/kg/injection, schedule: Q01DX009 (ip), vehicle: saline with Tween-80): 120 % of control
- T/C (dose: 6.25 mg/kg/injection, schedule: Q01DX009 (ip), vehicle: saline): 123 % of control
- T/C (dose: 11.0 mg/kg/injection, schedule: Q01DX009 (ip), vehicle: saline): 112 % of control
- T/C (dose: 12.5 mg/kg/injection, schedule: Q01DX009 (ip), vehicle: saline): 109 % of control
- T/C (dose: 16.5 mg/kg/injection, schedule: Q01DX009 (ip), vehicle: saline): 108 % of control
- T/C (dose: 25.0 mg/kg/injection, schedule: Q04DX003 (ip), vehicle: saline): 100 % of control
- T/C (dose: 37.5 mg/kg/injection, schedule: Q01DX009 (ip), vehicle: saline): 108 % of control
- T/C (dose: 50.0 mg/kg/injection, schedule: Q01DX009 (ip), vehicle: saline): 90 % of control
- T/C (dose: 50.0 mg/kg/injection, schedule: Q04DX003 (ip), vehicle: saline): 100 % of control
